In the supplement of paper PMC10307832:

Legend:
Assay in all cases: relative viability (nuclei count vs DMSO), 5 days (fraction); higher = more cells survive
GSK-J4 + Foretinib = compound: CCOC(=O)CCNc1cc(N2CCc3ccccc3CC2)nc(-c2ccccn2)n1 [GSK-J4] + COc1cc2c(Oc3ccc(NC(=O)C4(C(=O)Nc5ccc(F)cc5)CC4)cc3F)ccnc2cc1OCCCN1CCOCC1 [Foretinib] (partner 0.25 µM)
Outline: (§1)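 A single step with final 0.05% Triton X-100, 1% formaldehyde and 1 ug/ml Hoechst fixed the cells and stained nuclei 5 days after treatment. Lung cancer cell lines in 1536-well plates had been treated by pin tool the day after seeding with one drug alone or a fixed anchor-drug dose plus five library-drug doses (not always all listed) in √10 steps, and nuclei were counted on 4× images. Relative viability is the ratio of nuclei in treated wells to nuclei in vehicle wells, taken as the median of duplicate plates.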

AZ3146 + Lapatinib = compound: CN1CCC(CC1)OC2=CC(=C(C=C2)NC3=NC=C4C(=N3)N(C(=O)N4C)C5CCCC5)OC [AZ3146] + CS(=O)(=O)CCNCc1ccc(-c2ccc3ncnc(Nc4ccc(OCc5cccc(F)c5)c(Cl)c4)c3c2)o1 [Lapatinib] (partner 2 µM)
Outline: as §1

AZ3146 + Pemetrexed = compound: CN1CCC(CC1)OC2=CC(=C(C=C2)NC3=NC=C4C(=N3)N(C(=O)N4C)C5CCCC5)OC [AZ3146] + Nc1nc2[nH]cc(CCc3ccc(C(=O)N[C@@H](CCC(=O)O)C(=O)O)cc3)c2c(=O)[nH]1 [Pemetrexed] (partner 0.2 µM)
Outline: as §1

AZ3146 + OSI-027 = compound: CN1CCC(CC1)OC2=CC(=C(C=C2)NC3=NC=C4C(=N3)N(C(=O)N4C)C5CCCC5)OC [AZ3146] + COc1cccc2cc(-c3nc([C@H]4CC[C@H](C(=O)O)CC4)n4ncnc(N)c34)[nH]c12 [OSI-027] (partner 0.5 µM)
Outline: as §1

Cell Line | relative viability (GSK-J4 + Foretinib; first compound 0.5 µM) | relative viability (GSK-J4 + Foretinib; first compound 1.581 µM) | relative viability (GSK-J4 + Foretinib; first compound 15.81 µM) | relative viability (GSK-J4 + Foretinib; first compound 50 µM) | relative viability (AZ3146 + Lapatinib; first compound 0.08 µM) | relative viability (AZ3146 + Lapatinib; first compound 0.253 µM) | relative viability (AZ3146 + Lapatinib; first compound 0.8 µM) | relative viability (AZ3146 + Lapatinib; first compound 2.53 µM) | relative viability (AZ3146 + Lapatinib; first compound 8 µM) | relative viability (AZ3146 + Pemetrexed; first compound 0.08 µM) | relative viability (AZ3146 + Pemetrexed; first compound 0.253 µM) | relative viability (AZ3146 + Pemetrexed; first compound 0.8 µM) | relative viability (AZ3146 + Pemetrexed; first compound 2.53 µM) | relative viability (AZ3146 + Pemetrexed; first compound 8 µM) | relative viability (AZ3146 + OSI-027; first compound 0.08 µM) | relative viability (AZ3146 + OSI-027; first compound 0.253 µM) | relative viability (AZ3146 + OSI-027; first compound 0.8 µM) | relative viability (AZ3146 + OSI-027; first compound 2.53 µM) | relative viability (AZ3146 + OSI-027; first compound 8 µM) | relative viability (GSK-J4 + Foretinib; first compound 5 µM)
COR-L23 | 0.927 | 0.901 | 0.897 | 0.822 | 1 | 1.02 | 0.871 | 0.923 | 0.899 | 0.195 | 0.196 | 0.215 | 0.208 | 0.195 | 0.685 | 0.766 | 0.781 | 0.835 | 0.769 | –
COR-L 105 | 1.13 | 0.877 | 1.02 | 0.969 | 0.357 | 0.36 | 0.317 | 0.341 | 0.254 | 1.19 | 1.22 | 0.962 | 0.645 | 0.799 | 0.63 | 0.653 | 0.587 | 0.641 | 0.404 | 0.834
EKVX | 0.757 | 0.221 | 0.315 | 0.908 | 0.172 | 0.222 | 0.225 | 0.24 | 0.2 | 0.441 | 0.424 | 0.365 | 0.389 | 0.422 | 0.72 | 0.653 | 0.629 | 0.63 | 0.687 | 0.754
EMC-BAC-2 | 0.93 | 0.937 | 0.982 | 0.647 | 0.85 | 0.845 | 0.954 | 0.954 | 0.987 | 0.379 | 0.442 | 0.433 | 0.466 | 0.411 | 0.343 | 0.371 | 0.418 | 0.379 | 0.375 | 0.685
EPLC-272H | 0.723 | 0.547 | 0.514 | 0.26 | 0.897 | 0.911 | 0.957 | 0.951 | 0.877 | 0.366 | 0.369 | 0.37 | 0.341 | 0.396 | – | 0.277 | 0.272 | 0.309 | 0.308 | 0.819
H3255 | 0.856 | 0.85 | 0.844 | 0.804 | 0.23 | 0.216 | 0.186 | 0.267 | 0.245 | 0.597 | 0.536 | 0.542 | 0.6 | 0.574 | 0.654 | 0.483 | 0.594 | 0.612 | 0.638 | 0.846
HARA | 0.863 | – | 0.805 | 0.751 | 0.652 | 0.851 | 0.662 | 0.822 | 0.693 | 0.22 | 0.257 | 0.245 | 0.217 | 0.231 | 0.31 | 0.41 | 0.436 | 0.582 | 0.506 | –
HCC-15 | 0.949 | – | 0.854 | 0.69 | 0.873 | 0.819 | 0.896 | 0.857 | 0.832 | 0.222 | 0.22 | 0.221 | 0.224 | 0.207 | 0.689 | 0.667 | 0.481 | 0.773 | 0.578 | 0.898
HCC-78 | 0.571 | 0.508 | 0.589 | 0.631 | – | 0.488 | 0.762 | 0.864 | 0.574 | – | 1 | 0.911 | 0.91 | 0.895 | 0.3 | 0.381 | 0.322 | 0.357 | 0.365 | 0.675
HCC-366 | 0.955 | 0.881 | 0.915 | 0.874 | 1 | 1.1 | 1.01 | 0.964 | 0.693 | 0.166 | 0.205 | 0.198 | 0.157 | 0.148 | 0.781 | 0.85 | 0.863 | 0.865 | 0.884 | –
HCC-827 | 1.02 | 1.07 | 0.955 | 0.847 | 0.155 | 0.191 | 0.175 | 0.237 | 0.191 | 0.291 | 0.244 | 0.252 | 0.269 | 0.248 | 0.84 | 0.763 | 0.807 | 0.786 | 0.726 | 1.05
HOP-62 | 1 | 0.882 | 1.03 | 0.766 | 0.958 | 0.975 | 0.941 | 0.846 | 1.06 | 0.242 | 0.328 | 0.339 | 0.305 | 0.365 | 0.755 | 0.796 | 0.742 | 0.857 | 0.866 | 1.02
LC-2-ad | 0.909 | 0.763 | 0.781 | 0.775 | 0.828 | 1.04 | 0.907 | 0.914 | 0.631 | 0.245 | 0.29 | 0.271 | 0.262 | 0.259 | 0.694 | 0.781 | 0.801 | 0.92 | 0.819 | 0.868
LCLC-97TM1 | 0.972 | 0.953 | 0.856 | 0.561 | – | – | 1.2 | 0.861 | 0.289 | 0.142 | 0.184 | 0.233 | 0.192 | 0.163 | 0.501 | 0.585 | 0.364 | 0.415 | 0.396 | 0.909
LK-2 | 1.26 | – | 0.794 | 0.805 | 0.754 | 0.961 | 0.914 | 1.01 | 0.841 | – | – | 0.168 | 0.318 | 0.307 | 0.227 | 0.181 | 0.146 | 0.206 | 0.178 | 1.31
LOU-NH91 | 0.963 | 0.925 | 0.893 | 0.918 | 0.969 | 0.739 | 0.692 | 0.768 | 0.777 | 0.327 | 0.448 | 0.362 | 0.368 | 0.411 | 0.726 | 0.61 | 0.7 | 0.702 | 0.745 | 0.789
